We go through one compound from patent US20140228349A1, “5,7-SUBSTITUTED-IMIDAZO[1,2-C]PYRIMIDINES” (Array BioPharma Inc., priority 2011, published 2014).

What all share (assay type): biochemical
In one assay the target is T1, Human Tyk2 kinase domain (Homo sapiens, UniProt P29597).
T1 construct: comprising amino acids 886 to 1187; His10 (10 histidine residues) (C, cleaved yes); made in house
T1 sequence (P29597 886-1187): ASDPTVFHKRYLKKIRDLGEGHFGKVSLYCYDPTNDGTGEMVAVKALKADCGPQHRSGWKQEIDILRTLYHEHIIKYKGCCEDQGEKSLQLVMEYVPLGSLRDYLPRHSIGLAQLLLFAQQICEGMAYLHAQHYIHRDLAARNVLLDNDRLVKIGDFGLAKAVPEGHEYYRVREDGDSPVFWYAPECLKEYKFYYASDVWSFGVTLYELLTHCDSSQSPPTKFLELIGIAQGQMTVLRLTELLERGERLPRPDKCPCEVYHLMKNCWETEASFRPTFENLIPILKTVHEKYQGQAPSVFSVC
The experiment in a line: Tyk2 Inhibition Assay (Omnia kinase fluorescence peptide substrate). As to conditions: averaged IC50 ranges; 10 μM (Km app) or 1 mM ATP, 2 nM Tyk2. The gist of the method:
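Phosphorylation of 8 μM Omnia Y12 peptide followed kinetically by Sox fluorescence, ex 360/em 485 nm, every 50 s for 45 min. Enzyme: 2 nM Tyk2 kinase domain (aa 886–1187, His tag removed); ATP at 10 μM (Km app) or 1 mM; buffer HEPES pH 7.4 with MgCl2, Triton X-100, DTT. 10-point curves up to 10 μM, IC50 from 4-parameter logistic fit.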

The next assay concerns the target T2, JAK3 (Homo sapiens, UniProt P52333).
T2 construct: purchased Invitrogen Corporation, Carlsbad, Calif; IVGN PV4080
T2 sequence (P52333 1-1124): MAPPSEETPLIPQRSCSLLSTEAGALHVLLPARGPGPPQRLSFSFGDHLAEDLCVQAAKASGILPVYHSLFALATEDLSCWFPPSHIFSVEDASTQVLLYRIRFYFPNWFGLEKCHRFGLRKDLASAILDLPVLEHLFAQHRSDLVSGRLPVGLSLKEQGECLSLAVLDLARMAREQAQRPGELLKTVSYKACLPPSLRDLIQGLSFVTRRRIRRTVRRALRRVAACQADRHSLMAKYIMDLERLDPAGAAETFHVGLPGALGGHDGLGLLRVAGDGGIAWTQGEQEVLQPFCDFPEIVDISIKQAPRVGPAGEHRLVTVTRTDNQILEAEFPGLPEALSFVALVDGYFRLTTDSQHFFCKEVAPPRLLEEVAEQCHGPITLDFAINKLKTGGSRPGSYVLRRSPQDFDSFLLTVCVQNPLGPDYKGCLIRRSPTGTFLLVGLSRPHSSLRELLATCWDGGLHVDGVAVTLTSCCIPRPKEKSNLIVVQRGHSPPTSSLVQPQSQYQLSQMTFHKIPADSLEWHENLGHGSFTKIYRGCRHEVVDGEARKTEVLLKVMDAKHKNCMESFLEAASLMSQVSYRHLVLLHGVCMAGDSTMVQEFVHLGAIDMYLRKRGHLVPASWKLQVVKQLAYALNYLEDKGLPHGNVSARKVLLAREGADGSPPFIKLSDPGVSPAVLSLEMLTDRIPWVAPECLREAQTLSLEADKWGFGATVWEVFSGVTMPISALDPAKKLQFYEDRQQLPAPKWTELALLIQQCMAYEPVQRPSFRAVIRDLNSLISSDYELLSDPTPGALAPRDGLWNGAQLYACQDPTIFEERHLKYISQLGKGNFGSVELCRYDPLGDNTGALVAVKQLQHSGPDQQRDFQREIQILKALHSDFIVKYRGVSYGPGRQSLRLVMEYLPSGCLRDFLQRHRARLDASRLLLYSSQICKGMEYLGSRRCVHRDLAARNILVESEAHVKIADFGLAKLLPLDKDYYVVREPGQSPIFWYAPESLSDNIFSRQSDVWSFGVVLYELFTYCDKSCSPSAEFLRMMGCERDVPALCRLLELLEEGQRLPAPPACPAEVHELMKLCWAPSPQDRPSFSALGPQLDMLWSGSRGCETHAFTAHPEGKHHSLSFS
The experiment in a line: JAK3 Inhibition Assay (Omnia kinase fluorescence peptide substrate). As to conditions: averaged IC50 ranges; 10 μM (Km app) or 1 mM ATP, 2.5 nM JAK3. The gist of the method:
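IC50 is the concentration giving 50 percent of control on a 4-parameter logistic fit of 10-point, 3-fold dilutions from a 10 μM top dose, at 2% final DMSO. Kinetic Sox fluorescence (360/485 nm) was monitored every 50 s for 45 min. Mix: JAK3 2.5 nM, Omnia Y7 peptide 10 μM, ATP 10 μM (Km app) or 1 mM, in HEPES pH 7.4 buffer with MgCl2, Triton X-100 and DTT.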

Assay [1] relates to Tyk2, JAK1, JAK2 and JAK3. The assay is described as follows: in vitro assays (Examples A, B, C and D) taken together. Particulars: Reference Examples; statement in words. From the text: The assays described in Examples A, B, C and D for the determination of Tyk2, JAK1, JAK2 and JAK3 kinase activity, respectively, utilized the Omnia® Kinase fluorescence peptide substrate-based technology (Invitrogen). The specific components of the assay mixture are described in Examples A, B, C and D. In these assays, Mg^2+ is chelated upon phosphorylation of the Omnia peptide by the kinase to form a bridge between the chelation-enhanced fluorophore Sox and the phosphate, resulting in an increase in fluorescence emission at 485 nm when excited at […]. The reactions were therefore read at excitation 360 nm and emission was measured at 485 nm every 50 seconds for 45 minutes using a PerkinElmer EnVision Multilabel Plate Reader.
The final buffer conditions for Tyk2, JAK1, JAK2, and JAK3 assays were as follows: 25 mM HEPES, pH 7.4, 10 mM MgCl2, 0.01% Triton X-100 and 1 mM DTT.
Compounds were prepared at 50× the final concentration in DMSO by conducting 3-fold serial dilutions from a 500-μM intermediate dilution to give a 10-point dosing curve having a high dose of 10 μM. Two-μL aliquots of these were transferred to a fresh plate for a ten-fold intermediate dilution with assay buffer. Five-μL aliquots of the diluted compounds were then transferred to 20-μL of assay mixtures described in Examples A, B, C and D for a final concentration of DMSO of 2%. A standard or reference compound was typically included on each assay plate to validate that plate. For each plate, percent of control (POC) values were calculated for each well according to the following equation: […]
Compounds of Formula I were screened for their ability to inhibit Tyk2 using the general enzyme inhibition assay method, in which the assay mixture contained 10 μM (Km app) or 1 mM ATP, 8 μM Omnia® Y12 peptide (Catalog #IVGN KPZ3121C; Invitrogen Corporation, Carlsbad, Calif.) and 2 nM Tyk2 in a total volume of 20 μL. Human Tyk2 kinase domain, comprising amino acids 886 to 1187 with 10 additional histidine residues (histidine tag) on the carboxy terminus, was expressed and purified from bacculovirus in-house at Array BioPharma Inc. (Boulder, Colo.). The histidine tag was cleaved after purification using standard conditions.
Compounds of Formula I were screened for their ability to inhibit JAK1 using the general enzyme inhibition assay method, in which the assay mixture contained 40 μM (Km app) or 1 mM ATP, 8 μM Omnia® Y12 peptide (Catalog #IVGN KPZ3121C; Invitrogen Corporation, Carlsbad, Calif.) and 15 nM JAK1 in a total volume of 20 μL. JAK1 was purchased from Invitrogen Corporation, Carlsbad, Calif. (catalog #IVGN PV4775).
Compounds of Formula I were screened for their ability to inhibit JAK2 using the general enzyme inhibition assay method, in which the assay mixture contained 25 μM (Km app) or 1 mM ATP, 10 μM Omnia® Y7 peptide (Catalog #IVGN KNZ3071C, Invitrogen Corporation, Carlsbad, Calif.) and 5 nM JAK2 in a total volume of 20 μL. JAK2 was purchased from Invitrogen Corporation, Carlsbad, Calif. (catalog #IVGN PV4288).
Compounds of Formula I were screened for their ability to inhibit JAK3 using the general enzyme inhibition assay method, in which the assay mixture contained 10 μM (Km app) or 1 mM ATP, 10 μM Omnia® Y7 peptide (Catalog #IVGN KNZ3071C, Invitrogen Corporation, Carlsbad, Calif.) and 2.5 nM JAK3 in a total volume of 20 μL. JAK3 was purchased from Invitrogen Corporation, Carlsbad, Calif. (catalog #IVGN PV4080).

In a further assay the target is T3, JAK1 (Homo sapiens, UniProt P23458).
T3 construct: purchased Invitrogen Corporation, Carlsbad, Calif; IVGN PV4775
T3 sequence (P23458 whole entry): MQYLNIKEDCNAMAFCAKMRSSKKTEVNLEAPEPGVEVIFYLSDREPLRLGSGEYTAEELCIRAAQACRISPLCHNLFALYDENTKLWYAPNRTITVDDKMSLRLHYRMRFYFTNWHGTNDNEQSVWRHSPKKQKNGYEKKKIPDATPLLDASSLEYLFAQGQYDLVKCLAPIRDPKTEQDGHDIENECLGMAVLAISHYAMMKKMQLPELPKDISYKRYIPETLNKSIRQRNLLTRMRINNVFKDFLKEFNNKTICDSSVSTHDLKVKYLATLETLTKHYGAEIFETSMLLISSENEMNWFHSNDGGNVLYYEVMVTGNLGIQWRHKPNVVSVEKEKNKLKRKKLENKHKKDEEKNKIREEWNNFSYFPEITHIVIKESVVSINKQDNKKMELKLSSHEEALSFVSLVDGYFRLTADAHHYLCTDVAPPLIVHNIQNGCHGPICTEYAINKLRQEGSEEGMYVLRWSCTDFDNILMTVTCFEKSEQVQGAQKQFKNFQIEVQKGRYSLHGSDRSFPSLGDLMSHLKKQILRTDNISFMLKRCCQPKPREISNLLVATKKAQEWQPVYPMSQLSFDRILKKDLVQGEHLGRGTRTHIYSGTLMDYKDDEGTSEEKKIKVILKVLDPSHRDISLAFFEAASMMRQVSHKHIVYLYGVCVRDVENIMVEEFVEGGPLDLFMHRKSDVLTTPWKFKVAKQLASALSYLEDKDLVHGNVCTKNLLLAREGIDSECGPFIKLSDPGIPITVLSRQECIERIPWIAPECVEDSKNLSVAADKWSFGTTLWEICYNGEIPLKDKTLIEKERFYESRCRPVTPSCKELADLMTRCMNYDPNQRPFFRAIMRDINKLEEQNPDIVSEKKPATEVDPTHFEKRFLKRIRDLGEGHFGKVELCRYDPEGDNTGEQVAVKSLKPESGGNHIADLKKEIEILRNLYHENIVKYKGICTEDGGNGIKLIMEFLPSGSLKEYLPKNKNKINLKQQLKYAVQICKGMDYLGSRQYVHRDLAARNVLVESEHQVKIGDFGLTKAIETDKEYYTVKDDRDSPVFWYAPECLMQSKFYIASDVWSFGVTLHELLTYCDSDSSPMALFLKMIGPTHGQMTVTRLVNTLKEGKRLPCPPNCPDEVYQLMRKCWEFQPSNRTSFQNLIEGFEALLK
The experiment in a line: JAK1 Inhibition Assay (Omnia kinase fluorescence peptide substrate). As to conditions: averaged IC50 ranges; 40 μM (Km app) or 1 mM ATP, 15 nM JAK1. The gist of the method: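 15 nM JAK1, 8 μM Omnia Y12 peptide, 40 μM (Km app) or 1 mM ATP; 25 mM HEPES pH 7.4, 10 mM MgCl2, 2% DMSO. Fluorescence (ex 360/em 485 nm) read every 50 s over 45 min. IC50 by 4-parameter fit of percent of control, top dose 10 μM.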

The next assay addresses T4, JAK2 (Homo sapiens, UniProt O60674).
T4 construct: purchased Invitrogen Corporation, Carlsbad, Calif; IVGN PV4288
The assay is described as follows: JAK2 Inhibition Assay (Omnia kinase fluorescence peptide substrate). As to conditions: averaged IC50 ranges; 25 μM (Km app) or 1 mM ATP, 5 nM JAK2.

Bounds are passed on as bounds.

T4 sequence (O60674 whole entry): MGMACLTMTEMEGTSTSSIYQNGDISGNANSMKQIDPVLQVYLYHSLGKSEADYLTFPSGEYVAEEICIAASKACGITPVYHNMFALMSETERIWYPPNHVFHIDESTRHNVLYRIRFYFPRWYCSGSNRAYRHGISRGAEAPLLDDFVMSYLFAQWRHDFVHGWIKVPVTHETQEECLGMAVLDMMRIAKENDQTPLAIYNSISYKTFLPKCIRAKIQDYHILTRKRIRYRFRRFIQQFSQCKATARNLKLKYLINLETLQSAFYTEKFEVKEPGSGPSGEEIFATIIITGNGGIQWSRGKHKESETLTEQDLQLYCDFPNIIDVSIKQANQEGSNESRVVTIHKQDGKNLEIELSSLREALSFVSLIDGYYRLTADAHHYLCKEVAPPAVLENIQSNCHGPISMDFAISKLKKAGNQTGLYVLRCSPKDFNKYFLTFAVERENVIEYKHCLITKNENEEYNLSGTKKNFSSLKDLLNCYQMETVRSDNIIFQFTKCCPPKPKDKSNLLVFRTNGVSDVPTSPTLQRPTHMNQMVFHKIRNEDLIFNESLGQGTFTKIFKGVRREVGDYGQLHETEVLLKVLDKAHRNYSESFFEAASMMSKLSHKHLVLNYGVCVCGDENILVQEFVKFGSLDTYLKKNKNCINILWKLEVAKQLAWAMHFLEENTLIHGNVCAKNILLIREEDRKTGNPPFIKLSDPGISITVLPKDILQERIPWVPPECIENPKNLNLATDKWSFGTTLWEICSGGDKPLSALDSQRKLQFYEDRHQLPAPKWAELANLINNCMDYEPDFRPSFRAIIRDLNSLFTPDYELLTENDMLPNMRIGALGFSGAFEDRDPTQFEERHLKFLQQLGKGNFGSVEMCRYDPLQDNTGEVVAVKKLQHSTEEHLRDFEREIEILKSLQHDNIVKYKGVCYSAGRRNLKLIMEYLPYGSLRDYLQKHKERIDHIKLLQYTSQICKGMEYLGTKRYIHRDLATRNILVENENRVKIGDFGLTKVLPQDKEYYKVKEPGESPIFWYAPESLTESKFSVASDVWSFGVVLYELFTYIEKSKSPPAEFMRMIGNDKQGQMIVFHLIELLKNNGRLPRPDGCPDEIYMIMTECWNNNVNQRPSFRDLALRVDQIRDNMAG

Consider `COCCC1(n2cc(-c3nc(-c4cnn(C)c4)cc4nccn34)cn2)CN(C(=O)N(C)C)C1` [Example 99, 3-(2-methoxyethyl)-N,N-dimethyl-3-(4-(7-(1-methyl-1H-pyrazol-4-yl)imidazo[1,2-c]pyrimidin-5-yl)-1H-pyrazol-1-yl)azetidine-1-carboxamide], for which the IC50 on Human Tyk2 kinase domain, at JAK3, against JAK1 and against JAK2 was greater than 1000 nM in each case. Moreover, the “activity in the in vitro assays” value in assay [1] is “weakly active”.
